Source: patent US20030088057A1, “PEPTIDE SUBSTRATES PHOSPHORYLATED BY P21-ACTIVAGED PROTEIN KINASE STATEMENT REGARDING FEDERALLY SPONSORED REASEARCH OR DEVELOPMENT” (priority 1998, published 2003)
Read-outs that look alike come from different tables or passages of the source. No end group written: not given here.

Experiments:
γ-PAK [1] = assay: Rates of phosphorylation of synthetic peptides by γ-PAK; assay type: biochemical, rabbit; settings: for rate of phosphorylation compared to ARRASVA: other studies, ARRASVA = 100%; for substrate for γ-PAK (in words): synthetic peptides; for 32P incorporated, %: AKRASAA taken as 100%; for rate of phosphorylation compared to AKRASAA: relative to AKRASAA
Source text: (§1) A. Materials. γ-PAK was purified from rabbit reticulocytes to apparent homogeneity by chromatography on DEAE-cellulose, SP-Sepharose, protamine agarose, and FPLC on Mono S and Mono Q. Histone I (type IIIS), mixed histone (type IIAS), trypsin (L-1-tosylamido-2-phenylethyl chloromethyl ketone treated), soybean trypsin inhibitor, bovine serum albumin (fatty acid free), and myelin basic protein were purchased from Sigma. Purified histones 2B and 4 were purchased from Boehringer-Mannheim. Myosin light chain from rabbit skeletal muscle was a gift from Dr. James Stull, University of Texas Southwestern Medical Center, Dallas, Tex.; rat prolactin was provided by Dr. Ameae Walker, University of California, Riverside, Calif.; and the purified catalytic subunit of cAMP-dependent protein kinase from bovine heart was a gift from Dr. William H. Fletcher, J. L. Pettis Memorial V. A. Hospital, Loma Linda, Calif. Protein kinase C was purified from bovine brain according to the procedure of Walton et al. [Walton, G. M., et al., Anal Biochem., 161:425-437 (1987)], with modifications [Venema, R. C., et al., J. Biol. Chem., 266:5298-5302 (1991)]. The clone for GST-Cdc42 was generously provided by Dr. Channing Der, University of North Carolina, Chapel Hill, N.C. Cellulose thin-layer chromatography sheets were from Kodak.
D. Phosphorylation Assays. Phosphorylation of protein substrates was carried out in 35 μL reaction mixtures containing 20 mM Tris-HCl, pH 7.4, 10 mM MgCl2, 30 mM 2-mercaptoethanol, 0.2 mM ATP (specific activity =1000 cpm/pmol), 2 μg of protein substrate, and 20 units of active γ-PAK (an enzyme unit is defined as the amount of enzyme that incorporates 1 pmol of phosphate into histone IIAS/ min at 30°. Under these conditions, phosphate incorporation was linear and initial rates of phosphorylation were measured. After incubation at 30° C. for 15 min, reactions were terminated by the addition of 5 μL of 100 mM nonlabeled ATP and sample buffer for gel electrophoresis [Hathaway, G. M., et al., Methods Enzymol., 60:495-511 (1979)]. Reaction mixtures were subjected to SDS-PAGE on 15% polyacrylamide gels followed by autoradiography. Phosphorylation was quantified by excising the protein band and counting the incorporated ^32P in a liquid scintillation counter. The specific activity of γ-PAK was 400 pmol min^−1 μg^−1 as reported previously using 0.2 mM ATP and 1 mg/mL mixed histone as substrate [Rooney, R. D., et al., (1996), supra].
(§2) Assays with peptides (I mM) were carried out with γ-PAK (1.6-5.6 units) in 25 μL reaction mixtures incubated for 30 min at 30° C. under conditions described above, except that 0.4 mg/mL of bovine serum albumin was added and the specific activity of ATP was 300-2000 cpm/pmol. Reactions were terminated with 5 μL of 100 mM ATP, and the amount of ^32p incorporated was quantitated by precipitation of 20 μL aliquots on P81 phosphocellulose paper with 75 mM H3PO4 as described previously [Bensen, E. S., et al., Biochim. Biophys. Acta, 1292:249-258 (1996)]. Peptides containing only one basic amino acid were analyzed by thin-layer electrophoresis on cellulose sheets for 2 h at 600 V with pyridine/acetic acid/water (10:100:890), pH 3.5, as solvent, as described previously [Bensen, E. S., et al., supra]. Activation of γ-PAK by autophosphorylation in the presence of Cdc42(GTPγS) was performed as previously described [Jakobi, R., et al., supra]. γ-PAK was also activated by limited digestion with trypsin as described previously [Rooney, R. D., et al., (1996), supra].
Target sequence in this assay (Q29502 249-500 limits assumed): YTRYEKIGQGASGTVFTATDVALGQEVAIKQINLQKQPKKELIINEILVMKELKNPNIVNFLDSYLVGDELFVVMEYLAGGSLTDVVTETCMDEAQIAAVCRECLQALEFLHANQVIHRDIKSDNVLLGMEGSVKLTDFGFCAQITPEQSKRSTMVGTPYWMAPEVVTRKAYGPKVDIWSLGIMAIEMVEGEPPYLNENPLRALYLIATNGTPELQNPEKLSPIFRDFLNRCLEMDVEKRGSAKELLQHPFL

PKC = assay: Rates of phosphorylation of synthetic peptides by PKC; assay type: biochemical, bovine; settings: for 32P incorporated: PKC (3.4 units), with Ca2+ and phospholipids, 0.14 mM ATP; for 32P incorporated, %: PKC, AKRASAA taken as 100%
Source text: as §1
Reactions with PKA (10.5 units) were carried out under the same conditions as with γ-PAK except that 0.14 mM ATP was used. Reactions with PKC (3.4 units) were performed as with PKA, with the addition of 0.4 mM CaCl2, phosphatidylinositol (15 μg/mL), phosphatidylserine (15 μg/ mL), and 1,2-diolein (3 μg/mL), as described [Tuazon, P. T., et al., (1989), supra]. A unit of PKA or PKC is defined as the amount of enzyme that incorporates 1 pmol of phosphate/min at 30° C. into histone IIAS or histone 1, respectively.
PKA and PKC are known to require basic amino acids on the N-terminal side of the phosphorylatable serine/ threonine. To distinguish their substrate specificities from that of γ-PAK, the relative rates of phosphorylation were determined with the synthetic peptide substrates using the conditions for γ-PAK, with the addition of Ca^2+ and phospholipids for PKC. The rates shown in Table 5 are calculated with equivalent units of enzyme; the rate of phosphorylation of the peptide AKRASAA (SEQ ID NO:6) is taken as 100% for all three enzymes. As would be expected, PKA preferentially phosphorylated the peptides that contained RR or RK at the −3 and −2 positions and with […] residues or proline at the −4 and −1 positions inhibitory. PKC recognized SKR>RKS>KKS. The most notable difference between γ-PAK and PKA or PKC is the effect of acidic residues on the susceptibility of the peptide to be phosphorylated. An acidic residue in the −1 or −4 position was beneficial for γ-PAK but was detrimental for both PKA and PKC (Table 5). […] In addition, γ-PAK could not tolerate an arginine in the −3 position when lysine was in the −2 position.

γ-PAK [2] = assay: Kinetic parameters (Km, Vmax) for phosphorylation of synthetic peptides by γ-PAK; assay type: biochemical, rabbit
Description: as §2

[3] = Cdc42(GTPγS)-activated γ-PAK, peptide 1 mM, KKRKSAA = 100
[4] = proteolytically (trypsin) activated γ-PAK, peptide 1 mM, compared to KKRKSAA = 100
[5] = proteolytically activated γ-PAK (5.6 units), peptide 1 mM, 30 min at 30° C.
[6] = γ-PAK, calculated with equivalent units of enzyme
[7] = Table 4, influence of proline and glycine, read-out: Km
[8] = Table 2, influence of basic amino acids, γ-PAK 1.6 units, ATP 0.2 mM
[9] = Table 2, influence of basic amino acids, γ-PAK 1.6 units, ATP 0.2 mM, read-out: Km
[10] = Table 4, influence of proline and glycine

Compound | rel rate (%) (γ-PAK [1]; [3]) | rel rate (%) (γ-PAK [1]; [4]) | 32P incorporated (γ-PAK [1]; [5]) | substrate for γ-PAK (in words) (γ-PAK [1]) | Km (γ-PAK [2]; [9]) | also measured
ARRASVA [synthetic peptide] |  |  |  |  |  | rate of phosphorylation compared to ARRASVA (γ-PAK [1]; γ-PAK): 100%
AKRPSAA (AKRPSAA-NH2) [synthetic peptide with an amide C-terminal group] | 11% | 6% | 16 pmol/min/µg | virtually abolished phosphorylation |  | 32P incorporated, % (γ-PAK [1]; γ-PAK): 5%; 32P incorporated (γ-PAK [1]; [6]): 1.2 pmol/unit; 32P incorporated (PKC): 3.9 pmol/unit; 32P incorporated, % (PKC): 118%; Km (γ-PAK [2]; [7]): > 5000 µM
AKRASPA (AKRASPA-NH2) [synthetic peptide with an amide C-terminal group] | 3% | 0% | 0 pmol/min/µg | virtually abolished phosphorylation |  | Km (γ-PAK [2]; [7]): > 5000 µM
ARRASAA (ARRASAA-NH2) [synthetic peptide with an amide C-terminal group] | 134% | 129% | 391 pmol/min/µg | as good a substrate as AKRASAA | 650 µM | 32P incorporated, % (γ-PAK [1]; γ-PAK): 93%; 32P incorporated (γ-PAK [1]; [6]): 25.0 pmol/unit; 32P incorporated (PKC): 18.8 pmol/unit; 32P incorporated, % (PKC): 570%; Vmax (γ-PAK [2]; [8]): 2.11 pmol/min
AKRGSAA (AKRGSAA-NH2) [synthetic peptide with an amide C-terminal group] |  | 126% | 381 pmol/min/µg |  |  | increase of Km compared to AKRASAA (γ-PAK [2]): 7 fold; increase of Vmax compared to AKRASAA (γ-PAK [2]): 6 fold; overall rate of phosphorylation (Vmax/Km) compared to AKRASAA (γ-PAK [2]): slight overall decrease; Vmax (γ-PAK [2]; [10]): 6.44 pmol/min; Km (γ-PAK [2]; [7]): 3520 µM
AARASAA (AARASAA-NH2) [synthetic peptide with an amide C-terminal group] | 56% | 56% | 169 pmol/min/µg | reacted to a small but significant extent | 1880 µM | rate of phosphorylation compared to AKRASAA (γ-PAK [1]; γ-PAK): 40%; Vmax (γ-PAK [2]; [8]): 2.27 pmol/min
AAKKSAA (AAKKSAA-NH2) [synthetic peptide with an amide C-terminal group] | 0% | 0% | 0 pmol/min/µg | poor substrates |  | 
AAKRSAA (AAKRSAA-NH2) [synthetic peptide with an amide C-terminal group] | 0% | 0% | 0 pmol/min/µg | poor substrates |  | 
AAAASKR (AAAASKR-NH2) [synthetic peptide with an amide C-terminal group] | 0% | 0% | 0 pmol/min/µg |  |  | 32P incorporated, % (γ-PAK [1]; γ-PAK): 0%; 32P incorporated (γ-PAK [1]; [6]): 0 pmol/unit; 32P incorporated (PKC): 13.3 pmol/unit; 32P incorporated, % (PKC): 403%
KKRKSAA [model peptide patterned after the phosphorylation site of nucleocapsid protein NC] | 100% | 100% | 302 pmol/min/µg |  | 610 µM | 32P incorporated, % (γ-PAK [1]; γ-PAK): 72%; 32P incorporated (γ-PAK [1]; [6]): 19.2 pmol/unit; 32P incorporated (PKC): 11.1 pmol/unit; 32P incorporated, % (PKC): 370%; Vmax (γ-PAK [2]; [8]): 1.84 pmol/min; Vmax (γ-PAK [2]; text b67, b73): 302 pmol/min/µg
KKAASAA (KKAASAA-NH2) [synthetic peptide with an amide C-terminal group] | 3% | 0% | 0 pmol/min/µg | did not |  | 
ARAASVA [synthetic peptide] |  |  |  | reacted to a small but significant extent |  | rate of phosphorylation compared to ARRASVA (γ-PAK [1]; γ-PAK): 40%; rate of phosphorylation compared to AKRASAA (γ-PAK [1]; γ-PAK): 40%
AKRKSAA (AKRKSAA-NH2) [synthetic peptide with an amide C-terminal group] | 158% | 181% | 548 pmol/min/µg |  | 480 µM | Vmax (γ-PAK [2]; [8]): 2.34 pmol/min
AKRASGA (AKRASGA-NH2) [synthetic peptide with an amide C-terminal group] |  | 107% | 324 pmol/min/µg |  |  | increase of Km compared to AKRASAA (γ-PAK [2]): 4 fold; increase of Vmax compared to AKRASAA (γ-PAK [2]): 3 fold; overall rate of phosphorylation (Vmax/Km) compared to AKRASAA (γ-PAK [2]): slight overall decrease; Vmax (γ-PAK [2]; [10]): 3.49 pmol/min; Km (γ-PAK [2]; [7]): 2090 µM
ARKASAA (ARKASAA-NH2) [synthetic peptide with an amide C-terminal group] | 9% | 6% | 16 pmol/min/µg | poor substrates | > 5000 µM | 32P incorporated, % (γ-PAK [1]; γ-PAK): 3%; 32P incorporated (γ-PAK [1]; [6]): 0.9 pmol/unit; 32P incorporated (PKC): 5.7 pmol/unit; 32P incorporated, % (PKC): 173%
Nc1ncnc2c1ncn2[C@@H]1O[C@H](COP(=O)(O)OP(=O)(O)OP(=O)(O)O)[C@@H](O)[C@H]1O [ATP, reference compound] |  |  |  |  |  | Km (γ-PAK [2]; at concentrations of 1-3 mM peptide, read-out: Km for ATP): 65 to 80 µM
KKRASAA (KKRASAA-NH2) [synthetic peptide with an amide C-terminal group] | 181% | 193% | 586 pmol/min/µg |  | 370 µM | Vmax (γ-PAK [2]; [8]): 1.59 pmol/min
